These results are taken from ChEMBL document CHEMBL1138957, “Discovery and SAR of 2-amino-5-(thioaryl)thiazoles as potent and selective Itk inhibitors” (Bioorg Med Chem Lett, 2006).

One data set relates to Jurkat. The experiment in a line: Inhibition of IL2 production in Jurkat T cells. It is filed as functional, cell-based. The following applies: Homo sapiens.
Data set [1] has as its system Mus musculus. The experiment in a line: Inhibition of anti CD3-induced IL2 production in mice serum at 50 mg/kg, sc. The class given is functional. The following applies: route subcutaneous.
The subject of data set [2] is Mus musculus. The experiment in a line: Inhibition of anti CD3-induced IL2 production in mice serum at 50 mg/kg, sc after 1.75 hrs. Particulars: route subcutaneous. It is filed as functional.
The target in data set [3] is Tyrosine-protein kinase SYK (Homo sapiens, UniProt P43405). The experiment in a line: Inhibition of Syk.
Data set [4] in a line: Tmax in mice at 20 mg/kg, po. The class given is ADME, organism-based. The following applies: mouse, in vivo. Also noted: dose 20 mg/kg, route oral.
Data set [5] can be described thus: Oral bioavailability in mice at 20 mg/kg, po. The class given is ADME, organism-based. Particulars: mouse, in vivo.
Data set [6] in a line: Half life in mice at 10 mg/kg, iv. The class given is ADME, organism-based. Details: dose 10 mg/kg, route intravenous. The following applies: mouse, in vivo.
Data set [7] in a line: Clearance in mice at 10 mg/kg, iv. It is filed as ADME, organism-based. Particulars: mouse, in vivo. Details: dose 10 mg/kg, route intravenous.
The nature of data set [8]: Mean residence time in mice at 10 mg/kg, iv. It is filed as ADME, organism-based. Also noted: dose 10 mg/kg, route intravenous. The following applies: mouse, in vivo.
Data set [9] can be described thus: Tmax in mice at 10 mg/kg, iv. It is filed as ADME, organism-based. Also noted: dose 10 mg/kg, route intravenous. The following applies: mouse, in vivo.
Data set [10] can be described thus: Volume of distribution in mice at 10 mg/kg, iv. The following applies: mouse, in vivo, read-out: Vss. Also noted: dose 10 mg/kg, route intravenous. It is filed as ADME, organism-based.
Data set [11] in a line: Half life in mice at 20 mg/kg, po. It is filed as ADME, organism-based. Details: dose 20 mg/kg, route oral. The following applies: mouse, in vivo.
Data set [12] can be described thus: Cmax in mice at 20 mg/kg, po. The class given is ADME, organism-based. Details: dose 20 mg/kg, route oral. Particulars: mouse, in vivo.
A short description of data set [13]: Mean residence time in mice at 20 mg/kg, po. The class given is ADME, organism-based. Details: dose 20 mg/kg, route oral. Particulars: mouse, in vivo.
A further data set deals with EL4. Kind of data set: cells. The following applies: Mus musculus.
Data set [14] is filed under the species Mus musculus. The experiment in a line: Stability in mouse liver microsomes assessed as degradation rate per mg of protein. The class given is ADME.
The target of data set [15] is T1, Tyrosine-protein kinase ITK/TSK (Homo sapiens, UniProt Q08881).
T1 sequence (Q08881 whole entry): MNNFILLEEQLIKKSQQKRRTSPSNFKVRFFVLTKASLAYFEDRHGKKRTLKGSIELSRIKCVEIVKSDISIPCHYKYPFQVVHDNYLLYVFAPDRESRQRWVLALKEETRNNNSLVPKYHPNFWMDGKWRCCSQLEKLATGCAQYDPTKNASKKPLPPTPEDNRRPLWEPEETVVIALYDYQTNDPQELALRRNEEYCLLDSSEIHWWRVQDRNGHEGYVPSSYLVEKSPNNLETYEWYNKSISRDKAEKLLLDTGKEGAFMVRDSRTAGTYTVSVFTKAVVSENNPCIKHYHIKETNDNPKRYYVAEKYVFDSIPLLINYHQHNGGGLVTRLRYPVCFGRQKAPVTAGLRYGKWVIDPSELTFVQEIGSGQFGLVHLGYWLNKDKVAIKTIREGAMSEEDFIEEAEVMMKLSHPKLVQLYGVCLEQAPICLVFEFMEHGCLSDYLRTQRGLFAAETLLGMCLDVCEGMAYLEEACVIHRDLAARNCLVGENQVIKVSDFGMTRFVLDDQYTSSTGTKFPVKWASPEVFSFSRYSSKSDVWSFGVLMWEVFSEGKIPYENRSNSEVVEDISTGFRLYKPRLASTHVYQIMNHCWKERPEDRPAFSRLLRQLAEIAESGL
The experiment in a line: Inhibition of Itk.

For `COc1cc(C)c(Sc2cnc(NC(=O)c3ccc[nH]3)s2)cc1C(=O)N1CCN(C(C)=O)CC1`, in the data set with Jurkat, the IC50 (commonly the concentration that inhibits the measured activity by half) is 250 nM.
Turning to `COc1cc(C)c(Sc2cnc(NC(=O)c3ccc(CNC(C)C(C)(C)C)cc3)s2)cc1C(=O)N1CCN(C(C)=O)CC1` (stereo not drawn), in the data set on Mus musculus [1], the inhibition in vivo (in general, the share of the control response that was lost under treatment) at 50 mg/kg came out at 50%. Moreover, the Activity in the data set with Mus musculus [2] was found to be 1.89 µM. The IC50 in [3] was greater than 50000 nM; against Protein kinase C (PKC), 24000 nM; with EL4, 70 nM. Also, the Tmax (as a rule, the time from dosing to the highest level) in [4] came to 1 h; in [9], 3 min. Further, the bioavailability (commonly dose-corrected exposure relative to a reference, in per cent) in data set [5] was determined as 6.4%. The half-life (commonly the time needed for the level to fall by half in the phase considered) is 1.3 h in [6] and 1.4 h in [11]. Besides, in [7], the clearance – broadly, the rate of elimination divided by the concentration – was found to be 116 mL/min/kg. For the same compound, the MRT (usually a mean duration of stay, worked out from the concentration-time curve) stood at 1 h in data set [8] and 3.1 h in [13]. Also, the Vd in [10] stood at 7 L/kg. In addition, the peak level in data set [12] (Cmax) was 69 nM.
Regarding `CCNCc1ccc(C(=O)Nc2ncc(Sc3cc(C(=O)N4CCN(C(C)=O)CC4)c(OC)cc3C)s2)cc1`, the IC50 with Jurkat is 3400 nM.
In the data set on Jurkat, `COc1cc(C)c(Sc2cnc(NC(=O)C3CC3)s2)cc1C(=O)N1CCN(C(=O)CN(C)C)CC1` gave an IC50 of 210 nM. In addition, the Stability in the data set listed under Mus musculus [14] (mouse) worked out at 0.1 nmol/min/mg.
Take `CC(=O)N1CCN(C(=O)c2cccc(Sc3cnc(NC(=O)c4ccc(N(C)C)cc4)s3)c2C)CC1`: the IC50 in data set [15] was greater than 25000 nM.
In the data set on Jurkat, `CC(=O)N1CCN(C(=O)c2cc(Sc3cnc(Nc4cc(C)cc(C)n4)s3)ccc2O)CC1` came in with an IC50 of 460 nM.
The same measure, in the same setting: the value for `COc1cc(C)c(Sc2cnc(NC(=O)c3ccc(OC(C)C)cc3)s2)cc1C(=O)N1CCN(C(C)=O)CC1` was 360 nM.
The compound `O=C(O)C1CCCN(C(=O)c2cc(Sc3cnc(Nc4cccc(Br)n4)s3)ccc2O)C1` (stereo not drawn) gave an IC50 in the data set on Jurkat greater than 50000 nM. Further, in the data set listed under Mus musculus [14] (mouse), the Stability was less than 0.1 nmol/min/mg.
In the data set with Jurkat, `CC(=O)N1CCN(C(=O)c2cc(Sc3cnc(Nc4ccccn4)s3)ccc2O)CC1` yielded an IC50 of 2180 nM.
Take `CN(CC(=O)O)C(=O)c1cc(Sc2cnc(Nc3cccc(Br)n3)s2)ccc1O`: the IC50 with Jurkat is greater than 10000 nM. For the same compound, in the data set filed under Mus musculus [14] (mouse), the Stability was less than 0.1 nmol/min/mg.
Compound `CC(=O)N1CCN(C(=O)c2cccc(Sc3cnc(Nc4ccccn4)s3)c2)CC1` yielded an IC50 in the data set on Jurkat of 24000 nM.
In [15], `CC(=O)N1CCN(C(=O)c2cccc(Sc3cnc(Nc4cccnc4)s3)c2)CC1` returned an IC50 greater than 50000 nM.
For `O=C(O)C1CCN(C(=O)c2cc(Sc3cnc(Nc4cccc(Br)n4)s3)ccc2O)CC1`, the IC50 in the data set with Jurkat is greater than 50000 nM. Also, the Stability in the data set filed under Mus musculus [14] (mouse) was less than 0.1 nmol/min/mg.
In the data set with Jurkat, `CC(=O)N1CCN(C(=O)c2cc(CSc3cnc(NC(=O)c4ccc(CNC(C)C(C)(C)C)cc4)s3)cc(C)c2C)CC1` (stereo not drawn) showed an IC50 of 700 nM.
`CS(=O)(=O)NC(=O)C1CCCN(C(=O)c2cc(Sc3cnc(Nc4cccc(Br)n4)s3)ccc2O)C1` (stereo not drawn) displayed an IC50 in the data set on Jurkat greater than 10000 nM. Further, the Stability in the data set filed under Mus musculus [14] was less than 0.1 nmol/min.
As for `COc1cc(C)c(Sc2cnc(NC(=O)C3CC3C(=O)O)s2)cc1C(=O)N1CCN(C(C)=O)CC1` (stereo not drawn), in the data set with Jurkat, the IC50 was 25300 nM. For the same compound, in the data set listed under Mus musculus [14] (mouse), the Stability was less than 0.1 nmol/min/mg.
Compound `COc1cc(C)c(Sc2cnc(NC(=O)c3ccc(N(C)C)cc3)s2)cc1C(=O)N1CCN(C(C)=O)CC1` gave an IC50 in the data set with Jurkat of 280 nM.
`CC(=O)N1CCN(C(=O)c2cc(Sc3cnc(Nc4cccc(Br)n4)s3)ccc2O)CC1` came in with an IC50 with Jurkat of 370 nM. Moreover, the Stability in the data set listed under Mus musculus [14] (mouse) is greater than 0.3 nmol/min/mg.
`COc1cc(C)c(Sc2cnc(Nc3cc(C)cc(C)n3)s2)cc1C(=O)N1CCN(C(C)=O)CC1` gave an IC50 in the data set with Jurkat of 230 nM.
In turn, `CNCc1ccc(C(=O)Nc2ncc(Sc3cc(C(=O)N4CCOCC4)c(OC)cc3C)s2)[nH]1` displayed an IC50 in the data set with Jurkat of 260 nM. For the same compound, the Stability in the data set filed under Mus musculus [14] (mouse) amounted to 0.1 nmol/min/mg.
In the case of `COCc1ccc(C(=O)Nc2ncc(Sc3cc(C(=O)N4CCN(C(C)=O)CC4)c(OC)cc3C)s2)cc1`, 420 nM corresponded to half-maximal inhibition in the data set on Jurkat (IC50).
In the case of `COc1cc(C)c(Sc2cnc(NC(=O)C3CC3)s2)cc1C(=O)N1CCN(C(C)=O)CC1`, the IC50 in the data set on Jurkat stood at 690 nM. Further, the Stability in the data set filed under Mus musculus [14] (mouse) was greater than 0.3 nmol/min/mg.
On to `CCN1CCN(C(=O)c2cc(Sc3cnc(NC(=O)C4CC4)s3)c(C)cc2OC)CC1`, for which the IC50 with Jurkat came to 1000 nM. For the same compound, the Stability in the data set filed under Mus musculus [14] (mouse) is greater than 0.3 nmol/min/mg.
Turning to `CC(=O)N1CCN(C(=O)c2cccc(CSc3cnc(NC(=O)c4ccc(N(C)C)cc4)s3)c2)CC1`, it took 22000 nM to reach half-maximal inhibition in the data set with Jurkat (IC50).
